# Experimental data from patent US20200216439A1, “HETERO-1,5,6,7-TETRAHYDRO-4H-INDOL-4-ONES” (BAYER PHARMA AKTIENGESELLSCHAFT, priority 2015, published 2020).
# pIC50: −log10 of the molar value.
# Target: T1, catalytic domain of human Bub1 (amino acids 704-1085) (Homo sapiens, UniProt O43683)
# T1 construct: catalytic domain of human Bub1 (amino acids 704-1085); His6 (N); made in house; host or cells: Hi5 insect cells
# Experiment: Bub1 kinase assay (TR-FRET)
# Assay type: biochemical
# Details: TR-FRET; ATP 10 μM, peptide substrate 1 μM; 60 min at 22° C.; average or median if tested more than once; read-out: Inhibition of Bub1 kinase IC50
# Outline: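 Human Bub1 catalytic domain (704-1085, His6-tagged, Hi5-expressed, ~200 ng/mL) preincubated with compound 15 min at 22 °C, then reacted 60 min at 22 °C with 10 μM ATP and 1 μM biotinylated peptide substrate, pH 7.5. EDTA stop; TR-FRET 665/620 ratio; IC50 from 4-parameter fit, 11 concentrations in duplicate.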
# T1 sequence (O43683 704-1085): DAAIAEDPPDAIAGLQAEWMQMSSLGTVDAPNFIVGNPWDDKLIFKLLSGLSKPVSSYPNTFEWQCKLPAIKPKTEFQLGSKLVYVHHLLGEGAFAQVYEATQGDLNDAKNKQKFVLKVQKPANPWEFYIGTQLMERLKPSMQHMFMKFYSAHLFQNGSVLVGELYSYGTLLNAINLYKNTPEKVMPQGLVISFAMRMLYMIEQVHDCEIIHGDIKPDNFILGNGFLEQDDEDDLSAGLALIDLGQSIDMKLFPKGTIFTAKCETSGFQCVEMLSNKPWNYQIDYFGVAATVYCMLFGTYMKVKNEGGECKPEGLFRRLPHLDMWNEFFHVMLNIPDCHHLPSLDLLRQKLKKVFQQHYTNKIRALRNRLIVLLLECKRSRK
row,pIC50,SMILES
1,6.95,"COC(=O)N1CC(=O)c2c([nH]c(-c3ccnc(NC(C)=O)c3)c2Nc2ccc(C)cc2)C1 [Example 321, Methyl 2-[2-(acetylamino)pyridin-4-yl]-3-[(4-methylphenyl)amino]-4-oxo-1,4,5,7-tetrahydro-6H-pyrrolo[2,3-c]pyridine-6-carboxylate]"
2,7.39,CNS(=O)(=O)N1CC(=O)c2c([nH]c(-c3ccnc(NC(C)=O)c3)c2Nc2ccc(C)cc2)C1 [Example 322]
3,6.64,"CC(=O)Nc1cc(-c2[nH]c3c(c2Nc2ccc(C)cc2)C(=O)CN(C(=O)OC(C)C)C3)ccn1 [Example 323, Propan-2-yl 2-[2-(acetylamino)pyridin-4-yl]-3-[(4-methylphenyl)amino]-4-oxo-1,4,5,7-tetrahydro-6H-pyrrolo[2,3-c]pyridine-6-carboxylate]"
